The values below come from ChEMBL document CHEMBL1142336, “Overcoming undesirable HERG potency of chemokine receptor antagonists using baseline lipophilicity relationships” (J Med Chem, 2008).

A short description of data set [1]: Lipophilicity, log D at pH 7.4. The following applies: buffer.
Data set [2] addresses Voltage-gated inwardly rectifying potassium channel KCNH2 (Homo sapiens, UniProt Q12809). The data set can be described thus: Displacement of [3H]dofetilide from human recombinant ERG potassium channel expressed in HEK293 cells by patch clamp method. (Loss of bound radioactivity is the signal in a displacement assay; it reports binding, not function.)
The target in data set [3] is C-C chemokine receptor type 8 (Homo sapiens, UniProt P51685). Put plainly: Antagonist activity at CCR8 receptor. In kind it is functional.
Chain of C-C chemokine receptor type 8 (P51685 whole entry): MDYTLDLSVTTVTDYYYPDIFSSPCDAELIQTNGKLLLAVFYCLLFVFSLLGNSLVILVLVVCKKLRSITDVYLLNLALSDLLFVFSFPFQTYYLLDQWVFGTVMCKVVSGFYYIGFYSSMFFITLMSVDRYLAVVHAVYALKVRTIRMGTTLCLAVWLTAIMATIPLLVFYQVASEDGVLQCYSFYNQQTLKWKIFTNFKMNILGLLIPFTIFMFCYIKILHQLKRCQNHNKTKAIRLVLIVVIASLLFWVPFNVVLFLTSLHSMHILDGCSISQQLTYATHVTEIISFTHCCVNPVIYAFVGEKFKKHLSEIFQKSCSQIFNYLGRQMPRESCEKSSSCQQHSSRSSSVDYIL

Chain of Voltage-gated inwardly rectifying potassium channel KCNH2 (Q12809 whole entry): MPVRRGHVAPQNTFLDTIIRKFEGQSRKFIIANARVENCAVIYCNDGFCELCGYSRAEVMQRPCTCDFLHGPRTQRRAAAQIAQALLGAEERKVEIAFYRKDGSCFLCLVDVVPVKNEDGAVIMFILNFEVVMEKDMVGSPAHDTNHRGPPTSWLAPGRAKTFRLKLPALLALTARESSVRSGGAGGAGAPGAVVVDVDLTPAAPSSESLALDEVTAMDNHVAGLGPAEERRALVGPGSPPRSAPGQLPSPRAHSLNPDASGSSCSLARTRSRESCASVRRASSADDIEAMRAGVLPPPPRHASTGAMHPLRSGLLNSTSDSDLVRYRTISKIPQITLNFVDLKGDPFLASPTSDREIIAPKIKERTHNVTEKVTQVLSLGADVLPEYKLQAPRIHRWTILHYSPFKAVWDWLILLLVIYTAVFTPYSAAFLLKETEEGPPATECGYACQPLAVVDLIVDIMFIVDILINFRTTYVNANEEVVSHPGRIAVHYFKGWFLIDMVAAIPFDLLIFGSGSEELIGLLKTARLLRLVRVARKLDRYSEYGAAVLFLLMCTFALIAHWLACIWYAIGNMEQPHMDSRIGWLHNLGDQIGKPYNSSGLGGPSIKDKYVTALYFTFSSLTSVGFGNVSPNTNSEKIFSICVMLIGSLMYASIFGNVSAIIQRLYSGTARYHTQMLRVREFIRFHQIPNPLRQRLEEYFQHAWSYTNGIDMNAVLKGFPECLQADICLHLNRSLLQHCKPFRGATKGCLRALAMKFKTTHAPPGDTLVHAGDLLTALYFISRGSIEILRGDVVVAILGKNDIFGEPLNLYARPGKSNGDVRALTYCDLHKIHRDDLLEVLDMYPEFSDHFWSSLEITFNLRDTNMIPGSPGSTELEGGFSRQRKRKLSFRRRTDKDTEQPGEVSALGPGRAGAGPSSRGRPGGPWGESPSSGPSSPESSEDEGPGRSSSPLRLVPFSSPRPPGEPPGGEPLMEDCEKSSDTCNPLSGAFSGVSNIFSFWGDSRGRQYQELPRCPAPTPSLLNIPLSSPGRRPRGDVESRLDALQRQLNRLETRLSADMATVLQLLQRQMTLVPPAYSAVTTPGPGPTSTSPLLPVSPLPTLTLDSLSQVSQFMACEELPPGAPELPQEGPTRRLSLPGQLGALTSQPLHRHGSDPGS

The logD is lipophilicity at a set pH, counting ionised and neutral species. On to `O=C(c1ccc(Cl)cc1)N1CCC2(CCN(Cc3ccccc3Oc3ccccc3)CC2)CC1`, for which the logD in data set [1] is 3.5.
Usually IC50 stands for the concentration needed to halve the response being measured. As to `COc1ccccc1Oc1ccccc1CN1CCC2(CC1)CCN(C(=O)c1cccc[n+]1[O-])CC2`, the IC50 was 1910 nM in data set [2] and 79.4 nM in data set [3]. Moreover, the logD in data set [1] stood at 0.5.
The molecule `COc1ccccc1Oc1ccccc1CN1CCC2(CC1)CCN(C(=O)c1cc[n+]([O-])cc1)CC2` had an IC50 in data set [3] of 115 nM. Besides, in data set [1], the logD amounted to 0.5.
Regarding `COc1ccccc1Oc1ccccc1CN1CCC2(CC1)CCN(C(=O)c1ccncc1)CC2`, the half-maximal inhibitory concentration (IC50) in data set [3] was 12 nM. In data set [1], this molecule showed a pH-dependent lipophilicity (logD) of 1.8.
The molecule `O=C(c1ccncc1)N1CCC2(CCN(Cc3ccccc3Oc3ccccc3)CC2)CC1` had a half-inhibitory concentration (IC50) in data set [3] of 33.1 nM.
In the case of `COc1ccccc1Oc1cccc(CN2CCC3(CC2)CCN(C(=O)c2ccc(Cl)cc2)CC3)c1`, the IC50 in data set [3] is 12 nM. In data set [1], this molecule registered a logD of 3.5.
Taken in the same sequence, the figures for `O=C(c1cc[n+]([O-])cc1)N1CCC2(CCN(Cc3cccc(Oc4ccccc4)c3)CC2)CC1` were 166 nM and 1.2.
Taken in the same sequence, the figures for `O=C(c1ccncn1)N1CCC2(CCN(Cc3cccc(Oc4ccccc4)c3)CC2)CC1` were 27.5 nM and 2.4.
`O=C(c1ccc(O)cc1OC[C@@H](O)CN1CCC2(CC1)Cc1cc(Cl)ccc1O2)N1C[C@H](O)CO1`: in data set [2], the IC50 was 25.1 nM. The molecule also gave a logD in data set [1] of 1.55.
